Measured values published in PMC9460781, “In Vitro and In Silico Study of the α-Glucosidase and Lipase Inhibitory Activities of Chemical Constituents from Piper cumanense (Piperaceae) and Synthetic Analogs” (Plants, 2022).
Converted amounts (≈) assume the structure as drawn.

Experiments:
[1] = biological target: T1, pancreatic lipase type II (PL) from porcine pancreas (Sus scrofa, UniProt P00591); assay: PL inhibition assay; format: biochemical; settings: p-nitrophenyl dodecanoate substrate, pH 8.4, 37 °C; NA: not active
T1 construct: purchased Sigma-Aldrich L-SLBD2433V (printed); host or cells: porcine pancreas
T1 sequence (P00591 1-450): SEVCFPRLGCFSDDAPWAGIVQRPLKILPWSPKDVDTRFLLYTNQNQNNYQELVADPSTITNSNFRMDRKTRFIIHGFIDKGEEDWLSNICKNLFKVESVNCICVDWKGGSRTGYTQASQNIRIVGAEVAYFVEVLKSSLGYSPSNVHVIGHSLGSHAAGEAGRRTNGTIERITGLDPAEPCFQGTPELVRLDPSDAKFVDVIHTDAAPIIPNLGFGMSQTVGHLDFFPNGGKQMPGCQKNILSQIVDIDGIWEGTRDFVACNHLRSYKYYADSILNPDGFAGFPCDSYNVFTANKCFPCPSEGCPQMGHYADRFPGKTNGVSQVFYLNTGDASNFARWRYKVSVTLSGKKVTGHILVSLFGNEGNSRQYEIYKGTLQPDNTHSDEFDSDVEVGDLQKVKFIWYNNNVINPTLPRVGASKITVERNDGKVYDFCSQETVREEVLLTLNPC
Description: (§1) The enzymes used in this study were pancreatic lipase type II (PL) from porcine pancreas (100–400 units/mg protein, L-SLBD2433V, EC. 3.1.1.3, Sigma-Aldrich, San Luis, MO, USA) and α-glucosidase (AG) type I from Saccharomyces cerevisiae (lyophilized powder, ≥10 units/mg protein, L-SLBX6245, EC 3.2.1.20, Sigma-Aldrich, San Luis, MO, USA). 4-nitrophenyl dodecanoate (Sigma-Aldrich, San Luis, MO, USA) was used as the substrate for PL while 4-nitrophenyl-α-D-glucopyranoside (Sigma-Aldrich, San Luis, MO, USA) for AG. Absorbance readings were performed in a Multiskan GO microplate reader (Thermo Scientific®, Waltham, MA, USA).
Determination of enzymatic inhibition of the identified compounds against the PL enzyme was carried out following the methodology described in the literature with some modifications. The concentrations were evaluated for compounds from 300 to 6.25 µM. […] In 96-well boxes, 30 μL of extract or compound stock solution, 30 μL of PL solution (200 U/mL), and 160 μL of Tris-HCl buffer (0.1 M, pH: 8.4) were mixed. The mixture obtained was pre-incubated for 30 min at 37 °C. Subsequently, 30 μL of p-nitrophenyl dodecanoate (100 μM) were added to complete a final volume of 250 μL and incubated for 40 min at 37 °C. After the incubation time, the absorbance was measured at 405 nm. All assays were performed in triplicate in two independent assays. IC50 values were estimated by nonlinear regression analysis. Statistically significant differences in biological effects of inhibitors (compounds) were analyzed and compared using the ANOVA test, supplemented by Tukey HSD post hoc analysis. All reported data corresponded to the average of three repetitions ± SD, and the statistical significance considered was p < 0.05.

[2] = biological target: T2, α-glucosidase (AG) type I from Saccharomyces cerevisiae (Saccharomyces cerevisiae, UniProt P53341); assay: biochemical; settings: α-Glucosidase IC50, p-nitrophenyl-α-D-glucopyranoside substrate, pH 7.2, 37 °C; NA: not active
T2 construct: purchased Sigma-Aldrich L-SLBX6245 (printed); host or cells: Saccharomyces cerevisiae
Description: as §1
Determination of enzyme inhibition of the compounds identified against the AG enzyme was carried out following the methodology described in the literature with some modifications. The concentrations were evaluated for compounds from 300 to 6.25 µM. […] In 96-well boxes, 10 μL of stock solution of each extract or compound, 20 μL of GA solution (0.5 U/mL), and 200 μL of phosphate buffer (0.1 M, pH: 7.2) were mixed. The mixture obtained was pre-incubated for 30 min at 37 °C. […] After the reaction time, the absorbance at 405 nm was measured. […] Statistically significant differences in the biological effects of inhibitors (compounds) were analyzed and compared using ANOVA, supplemented by Tukey HSD post hoc analysis. […]

[3] = biological target: T1, pancreatic lipase type II (PL) from porcine pancreas; assay: Kinetic study on PL (Ki, type of inhibition); format: biochemical; settings: for Pancreatic Lipase Inhibition Type: Lineweaver–Burk, abbreviated UC, C, NC, M in Table S1; for Ki: nonlinear regression of enzyme inhibition kinetics
Description: as §1
(§2) Kinetic studies to determine the type of inhibition were performed with PL and AG using a methodology the same as that described in the inhibitory activity assays. […] Five substrate concentrations were used for each of the enzymes in the range between 12.5 to 200 μM p-nitrophenyl dodecanoate for PL and 25 to 800 μM for p-nitrophenyl-α-D-glucopyranoside in AG. Kinetic experiments were performed in triplicate in two independent experiments. Inhibition constants (Ki) were calculated from (substrate) vs reaction rate curves using nonlinear regression of the enzyme inhibition kinetic function. Additionally, the inhibition mechanism was graphically determined by applying the double reciprocal Lineweaver–Burk regression function.

[4] = biological target: T2, α-glucosidase (AG) type I from Saccharomyces cerevisiae; assay: Kinetic study on AG (Ki, type of inhibition); format: biochemical; settings: for α-Glucosidase Inhibition Type: Lineweaver–Burk, abbreviated M, NC in Table S1; for Ki: nonlinear regression of enzyme inhibition kinetics
Description: as §1, §2

[5] = tested on: chemokine receptor CCR5; set-up: method as in PMID 14561515; settings: cited from earlier work
[6] = tested on: AG; settings: cited from earlier work

T2 sequence (P53341 whole entry): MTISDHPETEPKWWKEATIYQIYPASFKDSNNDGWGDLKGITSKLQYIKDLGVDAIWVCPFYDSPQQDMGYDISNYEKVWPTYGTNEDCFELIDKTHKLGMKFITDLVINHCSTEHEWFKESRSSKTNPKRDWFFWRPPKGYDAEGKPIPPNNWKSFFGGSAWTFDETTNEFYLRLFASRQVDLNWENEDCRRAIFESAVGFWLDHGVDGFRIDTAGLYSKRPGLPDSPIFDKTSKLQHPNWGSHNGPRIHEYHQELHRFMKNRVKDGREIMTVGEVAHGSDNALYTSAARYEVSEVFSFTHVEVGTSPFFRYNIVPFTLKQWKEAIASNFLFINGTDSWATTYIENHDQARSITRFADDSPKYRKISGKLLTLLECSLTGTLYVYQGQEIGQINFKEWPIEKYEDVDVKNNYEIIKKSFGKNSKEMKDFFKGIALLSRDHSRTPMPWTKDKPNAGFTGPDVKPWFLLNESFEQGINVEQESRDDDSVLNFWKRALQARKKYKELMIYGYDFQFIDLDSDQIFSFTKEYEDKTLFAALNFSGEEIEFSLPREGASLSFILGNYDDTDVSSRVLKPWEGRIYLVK

SMILES	IC50 [1] [µM]	Pancreatic Lipase Inhibition Type [3]	Ki [3] [µM]	also measured
CC(C)=CCCC(C)=CC(O)c1ccc2c(c1)C=CC(C)(C)O2 (stereo not drawn) [Compound 7, 1-(2,2-Dimethyl-2H-chromen-6-yl)-3,7-dimethyl-octa-2,6-dien-1-ol]	33.1 ± 5.28	Competitive	25.4	IC50 [2]: 134 ± 5.6 µM; α-Glucosidase Inhibition Type [4]: Noncompetitive; Ki [4]: 136 µM
COC(=O)c1cc(CC=C(C)C)c(O)c(C(=O)C=C(C)CCC=C(C)C)c1 [Compound 8, 3-(3,7-Dimethyl-octa-2,6-dienoyl)-4-hydroxy-5-(3-methyl-but-2-enyl)-benzoic acid methyl ester]	55.8 ± 2.98	Mixed	42.8	–
CCCCCCCCCCC[C@@H](C[C@@H]1OC(=O)[C@H]1CCCCCC)OC(=O)[C@H](CC(C)C)NC=O [Orlistat, reference compound]	–	Irreversible	–	–
CC(C)=CCCC1(C)C=Cc2cc(C(=O)O)cc(CC=C(C)C)c2O1 (stereo not drawn) [Compound 3, gaudichaudianic acid]	36.3 ± 6.5	Competitive	18	–
CC(C)=CCC/C(C)=C/C(=O)c1cc(C(=O)O)cc(CC=C(C)C)c1O [Compound 1, (2′E) cumenic acid]	33.8 ± 5.95	–	7.88	–
CC(C)=CC(=O)c1ccccc1O [Compound 5, 1-(2-Hydroxy-phenyl)-3-methyl-but-2-en-1-one]	48.3 ± 2.57	Noncompetitive	48.3	–
COc1ccc(C(=O)O)cc1CC=C(C)C [Compound 4, 4-methoxy-3-(3′-methyl-2’-butenyl)benzoic acid]	–	–	–	Pancreatic Lipase IC50 [1]: did not show any activity; melting point: 112 to 113 °C; ability to bind to the chemokine receptor CCR5 [5]: confirmed
C[C@H]1O[C@H](O[C@H]2[C@H](O)[C@@H](O)[C@@H](O[C@H]3[C@H](O)[C@@H](O)C(O)O[C@@H]3CO)O[C@@H]2CO)[C@H](O)[C@@H](O)[C@@H]1N[C@H]1C=C(CO)[C@@H](O)[C@H](O)[C@H]1O (stereo partly drawn) [Acarbose, reference compound]	–	–	–	α-Glucosidase Inhibition Type [4]: Competitive
O=C(/C=C/C=C/c1ccc2c(c1)OCO2)N1CCCCC1 [piperine]	–	–	–	IC50 on AG [6]: 147 µg/mL (≈ 515 µM)
CCCCC1(O)CC(C)(C)Oc2ccccc21 (stereo not drawn) [Compound 6, 4-Butyl-2,2-dimethyl-chroman-4-ol]	28.3 ± 2.9	Noncompetitive	28.3	IC50 [2]: 154 ± 4.65 µM; α-Glucosidase Inhibition Type [4]: mixed-type; Ki [4]: 51.3 µM
CO[C@H]1C=CC(=O)N1C(=O)CCc1ccccc1 [chaplupyrrolidone B]	–	–	–	IC50 [6]: 430 µM
CC(C)=CCC/C(C)=C\C(=O)c1cc(C(=O)O)cc(CC=C(C)C)c1O [Compound 2, (2′Z) cumenic acid]	36.2 ± 5.05	–	8.46	melting point: 132 to 134 °C
